Data from the supplement of paper PMC10307832.

Assays:
Experiment in all cases: relative viability (nuclei count vs DMSO), 5 days (fraction); higher = more cells survive
VE-821 + OSI-027 = compound: CS(=O)(=O)c1ccc(-c2cnc(N)c(C(=O)Nc3ccccc3)n2)cc1 [VE-821] + COc1cccc2cc(-c3nc([C@H]4CC[C@H](C(=O)O)CC4)n4ncnc(N)c34)[nH]c12 [OSI-027] (partner 0.5 µM)
How it was run: (§1)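 Lung cancer cell lines in 1536-well plates got either a single drug or a fixed anchor-drug dose together with five library-drug doses (not always all listed) in √10 steps, by pin tool, on the day after seeding. Nuclei were counted after 5 days, and relative viability is the treated-to-vehicle ratio of nuclei counts. Values are medians of duplicate plates.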

Vismodegib + Tozasertib = compound: CS(=O)(=O)c1ccc(C(=O)Nc2ccc(Cl)c(-c3ccccn3)c2)c(Cl)c1 [Vismodegib] + Cc1cc(Nc2cc(N3CCN(C)CC3)nc(Sc3ccc(NC(=O)C4CC4)cc3)n2)n[nH]1 [Tozasertib] (partner 0.1 µM)
How it was run: as §1

Ruxolitinib + Crizotinib = compound: N#CC[C@H](C1CCCC1)n1cc(-c2ncnc3[nH]ccc23)cn1 [Ruxolitinib] + C[C@@H](Oc1cc(-c2cnn(C3CCNCC3)c2)cnc1N)c1c(Cl)ccc(F)c1Cl [Crizotinib] (partner 1 µM)
How it was run: as §1

Ruxolitinib + Vorinostat = compound: N#CC[C@H](C1CCCC1)n1cc(-c2ncnc3[nH]ccc23)cn1 [Ruxolitinib] + O=C(CCCCCCC(=O)Nc1ccccc1)NO [Vorinostat] (partner 1 µM)
How it was run: as §1

Cell Line | relative viability (VE-821 + OSI-027; first compound 0.08 µM) | relative viability (VE-821 + OSI-027; first compound 0.253 µM) | relative viability (VE-821 + OSI-027; first compound 0.8 µM) | relative viability (VE-821 + OSI-027; first compound 2.53 µM) | relative viability (VE-821 + OSI-027; first compound 8 µM) | relative viability (Vismodegib + Tozasertib; first compound 0.08 µM) | relative viability (Vismodegib + Tozasertib; first compound 0.253 µM) | relative viability (Vismodegib + Tozasertib; first compound 0.8 µM) | relative viability (Vismodegib + Tozasertib; first compound 2.53 µM) | relative viability (Vismodegib + Tozasertib; first compound 8 µM) | relative viability (Ruxolitinib + Crizotinib; first compound 0.253 µM) | relative viability (Ruxolitinib + Crizotinib; first compound 0.8 µM) | relative viability (Ruxolitinib + Crizotinib; first compound 2.53 µM) | relative viability (Ruxolitinib + Crizotinib; first compound 8 µM) | relative viability (Ruxolitinib + Vorinostat; first compound 0.08 µM) | relative viability (Ruxolitinib + Vorinostat; first compound 0.253 µM) | relative viability (Ruxolitinib + Vorinostat; first compound 0.8 µM) | relative viability (Ruxolitinib + Vorinostat; first compound 2.53 µM) | relative viability (Ruxolitinib + Vorinostat; first compound 8 µM) | relative viability (Ruxolitinib + Crizotinib; first compound 0.08 µM)
NCI-H1623 | 0.48 | 0.489 | 0.543 | 0.454 | 0.379 | 0.403 | 0.42 | 0.422 | 0.418 | 0.411 | – | – | – | – | – | – | – | – | – | –
NCI-H520 | 0.257 | 0.257 | 0.195 | 0.278 | 0.208 | 0.392 | 0.452 | 0.481 | 0.385 | 0.433 | 0.714 | 0.964 | 0.708 | 0.645 | 0.758 | 0.858 | 0.752 | 0.844 | 0.654 | –
NCI-H2405 | 0.634 | 0.632 | 0.628 | 0.751 | 0.686 | 0.705 | 0.733 | 0.7 | 0.709 | 0.765 | 0.87 | 0.984 | 0.761 | 0.596 | 1 | 0.957 | 1.05 | 1.19 | 0.743 | 0.853
PC-3 [JPC-3] | 0.89 | 0.724 | 0.887 | 0.829 | 0.749 | 0.932 | 0.87 | 0.933 | 0.852 | 0.873 | 1 | 0.998 | 1.01 | 0.874 | – | 0.778 | 0.809 | 0.875 | 0.696 | 0.886
EBC-1 | – | – | – | – | – | – | – | – | – | – | – | 0.21 | 0.204 | 0.202 | – | – | – | – | – | 0.191
NCI-H2347 | 0.361 | 0.399 | 0.404 | 0.446 | 0.376 | 0.589 | 0.574 | 0.554 | 0.485 | 0.574 | 0.586 | 0.764 | 0.67 | 0.651 | 0.68 | 0.546 | 0.568 | 0.566 | 0.622 | 0.665
LXF-289 | 0.949 | 0.726 | 0.902 | 0.971 | 0.759 | 0.22 | 0.185 | 0.2 | 0.224 | 0.213 | 0.805 | 0.781 | 0.757 | 0.737 | 0.744 | 0.818 | 0.793 | 0.714 | 0.705 | 0.777
HCC-78 | 0.385 | 0.349 | 0.372 | 0.401 | 0.326 | 0.352 | 0.454 | 0.502 | 0.304 | 0.41 | 0.273 | 0.308 | 0.322 | 0.324 | 0.412 | 0.455 | 0.429 | 0.439 | 0.395 | 0.305
HCC-366 | 0.931 | 0.789 | 0.605 | 0.492 | 0.138 | 0.11 | 0.106 | 0.0997 | 0.0832 | 0.0622 | 0.551 | 0.549 | 0.449 | 0.257 | 0.34 | 0.321 | 0.423 | 0.192 | 0.167 | 0.513
NCI-H2023 | 0.392 | 0.311 | 0.274 | 0.274 | 0.11 | 0.356 | 0.341 | 0.348 | 0.315 | 0.227 | 0.574 | 0.746 | 0.704 | 0.719 | 0.661 | 0.667 | 0.95 | 0.581 | 0.798 | 0.533
